Assay results: patent US5066794A, “Process for preparing a disaccharide derivative” (Daiichi Pharmaceutical Co., Ltd., priority 1990, dated 1991)

Key:
[1] = test system: Japanese domestic white rabbits; assay: Test II: pyrogenicity test (body temperature increase in rabbits); settings: 0.1 μg/kg intravenous; febrile = temperature increase of 0.6° C. or more
Experimental: The pyrogenicity of the compounds of this invention was determined in terms of body temperature increase in rabbits after intravenous injection of the test compound in accordance with the test method of pyrogenicity defined in Japanese Pharmacopoeia. That is, the rectal temperatures of Japanese domestic white rabbits (body weight: 2 to 2.5 kg) were measured 3 times at one-hour intervals. When the temperature in the second and third measurements were substantially equal, the third temperature was taken as a reference temperature. Within 15 minutes after the third measurement, the test compound dissolved in pyrogen-free distilled water was injected in the ear vein, and the rectal temperature was measured 3 times at one-hour intervals after injection. A difference between the reference temperature and the maximum temperature was taken as an increase of body temperature, and the pyrogenicity of the test compound was expressed by the number of febrile animals showing a temperature increase of 0.6° C. or more.

[2] = test system: Japanese white rabbits; assay: Test I: local Shwartzman reaction induction activity; type: in vivo; settings: 100 μg S. minnesota LPS i.v. 20 hours later
Experimental: The local Shwartzman reaction test (Test I) is examined to determine the phenomenon of necrosis, at the site where a test compound was injected, induced by intravenous injection of lipopolysaccharide (hereinafter referred to as LPS) after 20 hours from intracutaneous injection of the test compound to test animals, preferably in rabbits.
The test on Shwartzman reaction specific to endotoxin was carried out as follows using Japanese white rabbits (female, weighing around 3 kg). That is, Japanese domestic white rabbits were intracutaneously injected with the test compound. Twenty hours later, 100 μg of LPS extracted from Salmonella minnesota R595, Re-mutant was intravenously injected to each rabbit. The Shwartzman reaction-induction activity was expressed in terms of number of animals that suffered from hemorrhagic necrosis at the site that had been prepared by intracutaneous injection of the test compound.

[3] = test system: murine lymphocytes (splenocytes); assay: Mitogenicity: stimulation of [^3 H]-labeled thymidine uptake into isolated murine lymphocytes (splenocytes); type: cell-based, BALB/c nu/nu mice; settings: Mus musculus, Splenocyte, 48 hours, 37° C., read-out: Stimulation Index ± S.E. of mitogenicity ([^3 H]-labeled thymidine uptake; T/C)
Experimental: Spleen of BALB/c nu/nu mice (male; 8-week old) was minced, and lymphocytes collected from the minced spleen were incubated with graded doses of test compounds in RPMI 1640 medium without fetal bovine serum at 37° C. at a concentration of 1×10^5 to 1×10^6 lymphocytes per ml for 48 hours. Twenty-four hours before the completion of the incubation, [^3 H]-labeled thymidine (manufactured by New England Nuclear) was added to the culture. After the completion of the incubation, cells were collected on glass microfiber paper and dried, and the radioactivity of [^3 H]-labeled thymidine incorporated into the cells was measured. The ratio of thymidine uptake in the test culture to which the test compound had been added to that in the respective control culture was determined as a stimulation index. The higher the stimulation index, the higher the mitogenicity.

Structure (SMILES) | Pyrogenicity: Number of Febrile Animals/Number of Tested Animals [1] | Shwartzman reaction-induction activity: Number of Necrosed Animals/Number of Tested Animals ([2]; 80 μg/site intracutaneous) | Shwartzman reaction-induction activity: Number of Necrosed Animals/Number of Tested Animals ([2]; 20 μg/site intracutaneous) | fold induction at 0.01 µg/mL ([3]; 0.01 μg/ml) | fold induction at 0.1 µg/mL ([3]; 0.1 μg/ml) | fold induction at 1 µg/mL ([3]; 1 μg/ml)
CCCCCCCCCCC[C@@H](O)CC(=O)N[C@H]1[C@H](OC[C@H]2O[C@H](OP(=O)(O)O)[C@H](NC(=O)C[C@H](O)CCCCCCCCCCC)[C@@H](OC(=O)C[C@H](O)CCCCCCCCCCC)[C@@H]2O)O[C@H](CO)[C@@H](OP(=O)(O)O)[C@@H]1OC(=O)C[C@H](O)CCCCCCCCCCC [Control Compound 1, 6-O-{2-Deoxy-2-[(R)-3-hydroxytetradecanoylamino]-3-O-[(R)-3-hydroxytetradecanoyl]-4-O-phosphono-β -D-glucopyranosyl}-2-deoxy-2-[(R)-3-hydroxytetradecanoylamino]-3-O-[(R)-3-hydroxytetradecanoyl]-1-O-phosphono-α-D-glucopyranose, reference compound] | 0/3 | 0/3 |  |  |  | 
CCCCCCCCCCCCCC(=O)O[C@H](CCCCCCCCCCC)CC(=O)O[C@@H]1[C@@H](NC(=O)C[C@@H](CCCCCCCCCCC)OC(=O)CCCCCCCCCCC)[C@H](OC[C@H]2O[C@H](OP(=O)(O)O)[C@H](NC(=O)C[C@H](O)CCCCCCCCCCC)[C@@H](OC(=O)C[C@H](O)CCCCCCCCCCC)[C@@H]2O)O[C@H](CO)[C@H]1OP(=O)(O)O [Compound of Present Invention, 6-O-{2-Deoxy-2-[(R)-3-dodecanoyloxytetradecanoylamino]-3-O-[(R)-3-tetradecanoyloxytetradecanoyl]-4-O-phosphono-β-D-glucopyranosyl}-2-deoxy-2-[(R)-3-hydroxytetradecanoylamino]-3-O-[(R)-3-hydroxytetradecanoyl]-1-O-phosphono-α-D-glucopyranose] | 3/4 |  | 2/3 | 4.06 ± 0.35 | 9.05 ± 0.7 | 11.8 ± 0.13
